Laboratory results reported in US9206130B2, “Quinoline derivatives as AXL kinase inhibitors” (Max-Planck-Gesellschaft zur Förderung der Wissenschaften …, priority 2008, dated 2015).

Experiments:
[1] = molecular target: T1, wild type AXL (wtAXL) receptor tyrosine kinase (Homo sapiens, UniProt P30530); experiment: NIH-3T3-AXL cellular tyrosine kinase assay (inhibition of AXL phosphorylation); assay type: cell-based; details: AXL phosphorylation in NIH-3T3-AXL (clone 22) cells, serum-depleted, 2 h with compound, immunoprecipitation / anti-phosphotyrosine blot
T1 construct: WtAXL cDNA was cloned into vector pLXSN(ESK) and transfected into Phoenix E packaging cells; expressed in transfected cells; host or cells: NIH3T3 N7 mouse fibroblasts, retrovirally infected (clone 22)
T1 sequence (P30530 26-894): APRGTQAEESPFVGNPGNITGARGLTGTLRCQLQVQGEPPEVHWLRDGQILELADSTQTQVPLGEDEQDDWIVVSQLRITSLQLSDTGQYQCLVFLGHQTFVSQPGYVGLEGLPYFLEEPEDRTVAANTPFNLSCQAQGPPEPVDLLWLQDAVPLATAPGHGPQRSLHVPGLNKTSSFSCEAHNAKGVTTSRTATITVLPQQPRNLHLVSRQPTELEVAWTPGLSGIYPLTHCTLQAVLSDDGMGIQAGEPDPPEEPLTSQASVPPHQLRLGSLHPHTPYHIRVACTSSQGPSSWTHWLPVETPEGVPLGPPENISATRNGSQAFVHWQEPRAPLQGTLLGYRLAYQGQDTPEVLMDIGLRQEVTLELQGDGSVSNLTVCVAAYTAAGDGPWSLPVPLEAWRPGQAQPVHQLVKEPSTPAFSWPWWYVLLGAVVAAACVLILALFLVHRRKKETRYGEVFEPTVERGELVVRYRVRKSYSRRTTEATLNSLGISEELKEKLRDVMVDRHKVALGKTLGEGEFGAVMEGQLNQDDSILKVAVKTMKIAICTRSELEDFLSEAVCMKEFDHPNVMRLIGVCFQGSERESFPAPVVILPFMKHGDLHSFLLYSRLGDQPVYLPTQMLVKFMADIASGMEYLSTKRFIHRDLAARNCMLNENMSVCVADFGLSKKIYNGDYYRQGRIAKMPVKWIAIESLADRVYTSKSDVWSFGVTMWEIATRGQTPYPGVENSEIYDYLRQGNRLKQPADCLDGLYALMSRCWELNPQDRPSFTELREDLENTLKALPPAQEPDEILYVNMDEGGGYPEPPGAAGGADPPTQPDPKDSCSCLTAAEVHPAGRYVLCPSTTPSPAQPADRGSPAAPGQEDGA
Procedure, shortened: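 NIH3T3 clones stably expressing human wtAXL (puromycin-selected) were exposed to serially diluted compounds for 2 h. AXL was immunoprecipitated from lysates with anti-AXL antibody, and phosphorylation detected by anti-phosphotyrosine (4G10) western blot with ECL.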

SMILES	melting point [°C]	IC50 [1] [µM]
COc1cc2nccc(Oc3ccc(NS(=O)(=O)c4ccc(-c5ccccc5)cc4)c(F)c3)c2cc1OC [Example A136, Biphenyl-4-sulfonic acid [4-(6,7-dimethoxy-quinolin-4-yloxy)-2-fluoro-phenyl]-amide]	199 to 201	> 10
COc1cc2nccc(Oc3ccc(NS(=O)(=O)c4ccc5c(c4)CC(=O)N5C)c(F)c3)c2cc1OC [Example A137, 1-Methyl-2-oxo-2,3-dihydro-1H-indole-5-sulfonic acid [4-(6,7-dimethoxy-quinolin-4-yloxy)-2-fluoro-phenyl]-amide]	195 to 197	> 10
COc1cc2nccc(Oc3ccc(NS(=O)(=O)c4cccc(-c5ccccc5)c4)cc3OC)c2cc1OC [Example A138, Biphenyl-3-sulfonic acid [4-(6,7-dimethoxy-quinolin-4-yloxy)-3-methoxy-phenyl]-amide]	108 to 110	> 10
COc1cc2nccc(Oc3ccc(NS(=O)(=O)c4cc(F)ccc4F)cc3OC)c2cc1OC [Example A139, N-[4-(6,7-Dimethoxy-quinolin-4-yloxy)-3-methoxy-phenyl]-2,5-difluoro-benzenesulfonamide]	222 to 224	2.2
COc1cc2nccc(Oc3ccc(NS(=O)(=O)c4cccc5ccccc45)cc3OC)c2cc1OC [Example A140, Naphthalene-1-sulfonic acid [4-(6,7-dimethoxy-quinolin-4-yloxy)-3-methoxy-phenyl]-amide]	124 to 126	> 10
COc1cc2nccc(Oc3ccc(NS(=O)(=O)c4ccc(-c5ccccc5)cc4)cc3OC)c2cc1OC [Example A142, Biphenyl-4-sulfonic acid [4-(6,7-dimethoxy-quinolin-4-yloxy)-3-methoxy-phenyl]-amide]	128 to 131	> 10
COc1cc2nccc(Oc3ccc(NS(=O)(=O)c4cccc(-c5ncccn5)c4)cc3OC)c2cc1OC [Example A143, N-[4-(6,7-Dimethoxy-quinolin-4-yloxy)-3-methoxy-phenyl]-3-pyrimidin-2-yl-benzenesulfonamide]	135 to 137	> 10
COc1cc2nccc(Oc3ccc(NS(=O)(=O)c4csc5ccccc45)cc3OC)c2cc1OC [Example A144, Benzo[b]thiophene-3-sulfonic acid [4-(6,7-dimethoxy-quinolin-4-yloxy)-3-methoxy-phenyl]-amide]	144 to 146	> 10
COc1cc2nccc(Oc3ccc(NS(=O)(=O)c4ccc5c(c4)CC(=O)N5C)cc3OC)c2cc1OC [Example A145, 1-Methyl-2-oxo-2,3-dihydro-1H-indole-5-sulfonic acid [4-(6,7-dimethoxy-quinolin-4-yloxy)-3-methoxy-phenyl]-amide]	150 to 152	> 10
COc1cc2nccc(Oc3ccc(NS(=O)(=O)c4ccc(Br)cc4OC(F)(F)F)cc3F)c2cc1OC [Example A146, 4-Bromo-N-[4-(6,7-dimethoxy-quinolin-4-yloxy)-3-fluoro-phenyl]-2-trifluoromethoxy-benzenesulfonamide]	226 to 228	0.89
COc1cc2nccc(Oc3ccc(NS(=O)(=O)c4ccc(Br)cc4OC(F)(F)F)c(F)c3)c2cc1OC [Example A147, 4-Bromo-N-[4-(6,7-dimethoxy-quinolin-4-yloxy)-2-fluoro-phenyl]-2-trifluoromethoxy-benzenesulfonamide]	227 to 229	> 3
COc1cc2nccc(Oc3ccc(NS(=O)(=O)c4ccc(Br)cc4OC(F)(F)F)cc3OC)c2cc1OC [Example A148, 4-Bromo-N-[4-(6,7-dimethoxy-quinolin-4-yloxy)-3-methoxy-phenyl]-2-trifluoromethoxy-benzenesulfonamide]	176 to 177	> 10
COc1cc2nccc(Oc3ccc(NS(=O)(=O)c4ccc(Br)cc4OC(F)(F)F)cc3)c2cc1OC [Example A149, 4-Bromo-N-[4-(6,7-dimethoxy-quinolin-4-yloxy)-phenyl]-2-trifluoromethoxy-benzenesulfonamide]	237 to 239	> 3
COc1cc2nccc(Oc3ccc(NS(=O)(=O)c4ccc(OC)c5ccccc45)c(C)c3)c2cc1OC [Example A150, 4-Methoxy-naphthalene-1-sulfonic acid [4-(6,7-dimethoxy-quinolin-4-yloxy)-2-methyl-phenyl]-amide]	216 to 217	> 10
COc1cc2nccc(Oc3ccc(NS(=O)(=O)c4cc(F)ccc4F)c(C)c3)c2cc1OC [Example A151, N-[4-(6,7-Dimethoxy-quinolin-4-yloxy)-2-methyl-phenyl]-2,5-difluoro-benzenesulfonamide]	259 to 260	> 10
COc1cc2nccc(Oc3ccc(NS(=O)(=O)c4ccc(Br)c(Cl)c4)c(C)c3)c2cc1OC [Example A152, 4-Bromo-3-chloro-N-[4-(6,7-dimethoxy-quinolin-4-yloxy)-2-methyl-phenyl]-benzenesulfonamide]	212 to 213	> 10
COc1cc2nccc(Oc3ccc(NS(=O)(=O)c4ccc(Cl)cc4F)c(C)c3)c2cc1OC [Example A153, 4-Chloro-N-[4-(6,7-dimethoxy-quinolin-4-yloxy)-2-methyl-phenyl]-2-fluoro-benzenesulfonamide]	248 to 250	> 10
COc1cc(S(=O)(=O)Nc2ccc(Oc3ccnc4cc(OC)c(OC)cc34)cc2C)ccc1F [Example A154, N-[4-(6,7-Dimethoxy-quinolin-4-yloxy)-2-methyl-phenyl]-4-fluoro-3-methoxy-benzenesulfonamide]	228 to 229	> 10
COc1cc2nccc(Oc3ccc(NS(=O)(=O)c4cc(Cl)c(O)c(Cl)c4)cc3)c2cc1OC [Example A155, 3,5-Dichloro-N-[4-(6,7-dimethoxy-quinolin-4-yloxy)-phenyl]-4-hydroxy-benzenesulfonamide]	> 260	> 3
COc1cc2nccc(Oc3ccc(NS(=O)(=O)c4cc(Cl)cc(Cl)c4O)cc3OC)c2cc1OC [Example A156, 3,5-Dichloro-N-[4-(6,7-dimethoxy-quinolin-4-yloxy)-3-methoxy-phenyl]-2-hydroxy-benzenesulfonamide]	> 240	> 1
Cc1cc(Oc2ccc(NS(=O)(=O)c3cccs3)c(F)c2)c2cc(F)ccc2n1 [Example B1, Thiophene-2-sulfonic acid [2-fluoro-4-(6-fluoro-2-methyl-quinolin-4-yloxy)-phenyl]-amide]	166 to 167	> 10
Cc1cc(Oc2ccc(NS(=O)(=O)c3cccc(C#N)c3)c(F)c2)c2cc(F)ccc2n1 [Example B2, 3-Cyano-N-[2-fluoro-4-(6-fluoro-2-methyl-quinolin-4-yloxy)-phenyl]-benzenesulfonamide]	190 to 191	> 10
COc1cccc(S(=O)(=O)Nc2ccc(Oc3cc(C)nc4ccc(F)cc34)cc2F)c1 [Example B3, N-[2-Fluoro-4-(6-fluoro-2-methyl-quinolin-4-yloxy)-phenyl]-3-methoxy-benzenesulfonamide]	150 to 151	8
Cc1cc(Oc2ccc(NS(=O)(=O)C3CC3)c(F)c2)c2cc(F)ccc2n1 [Example B4, Cyclopropanesulfonic acid [2-fluoro-4-(6-fluoro-2-methyl-quinolin-4-yloxy)-phenyl]-amide]	189 to 190	> 10
Cc1cc(Oc2ccc(NS(=O)(=O)c3ccc(F)c(Cl)c3)c(F)c2)c2cc(F)ccc2n1 [Example B5, 3-Chloro-4-fluoro-N-[2-fluoro-4-(6-fluoro-2-methyl-quinolin-4-yloxy)-phenyl]-benzenesulfonamide]	205 to 207	> 10
Cc1cc(Oc2ccc(NS(=O)(=O)c3c(F)cccc3F)c(F)c2)c2cc(F)ccc2n1 [Example B6, 2,6-Difluoro-N-[2-fluoro-4-(6-fluoro-2-methyl-quinolin-4-yloxy)-phenyl]-benzenesulfonamide]	188 to 190	> 10
Cc1cc(Oc2ccc(NS(=O)(=O)c3ccc(C)s3)c(F)c2)c2cc(F)ccc2n1 [Example B7, 5-Methyl-thiophene-2-sulfonic acid [2-fluoro-4-(6-fluoro-2-methyl-quinolin-4-yloxy)-phenyl]-amide]	151 to 153	> 10
